Drawing on BindingDB's records for doi:10.7270/Q2S46QSD (D3R/Abbott, 2015), this text covers Ki for twelve compounds.

Molecules are shown by their SMILES.

Chain of Mitogen-activated protein kinase 1 (P28482 whole entry): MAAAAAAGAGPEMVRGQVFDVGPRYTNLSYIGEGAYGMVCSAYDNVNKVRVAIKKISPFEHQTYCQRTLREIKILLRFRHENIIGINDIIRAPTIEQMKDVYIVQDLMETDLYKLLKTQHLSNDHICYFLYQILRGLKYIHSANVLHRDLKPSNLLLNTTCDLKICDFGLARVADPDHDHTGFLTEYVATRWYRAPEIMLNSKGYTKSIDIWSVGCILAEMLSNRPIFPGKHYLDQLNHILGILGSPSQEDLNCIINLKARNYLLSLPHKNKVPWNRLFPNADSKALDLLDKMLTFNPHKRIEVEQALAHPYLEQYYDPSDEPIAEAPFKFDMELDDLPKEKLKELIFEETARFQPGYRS

The assay addresses Mitogen-activated protein kinase 1 (Homo sapiens, UniProt P28482). The assay is described as follows: Photometric_Method2.
As a reminder, the Ki is a dissociation constant, usually derived from enzyme kinetics or from competition with a known ligand. A higher Ki goes with weaker binding. `Cc1ccc(Nc2ncc(C)c(-c3c[nH]c(C(=O)N[C@H](CO)c4cccc(Cl)c4)c3)n2)cc1` [erk000585] displayed a Ki of 7.1 nM.

`Cc1cnc(Nc2cccc3c2OC(F)(F)O3)nc1-c1c[nH]c(C(=O)N[C@H](CO)c2ccccc2)c1` [erk000591] displayed a Ki of 7.9 nM.

In turn, `Cc1cnc(N[C@H]2CCC[C@H]2O)nc1-c1c[nH]c(C(=O)N[C@H](CO)c2cccc(Cl)c2)c1` [erk000612] registered a Ki of 7.1 nM. The Ki values of the last two compounds are within 1.5-fold of each other.

For `Cc1cnc(NC2CCOCC2)nc1-c1c[nH]c(C(=O)N[C@H](CO)c2cccc(Cl)c2)c1` [erk000584], the affinity, expressed as Ki, was 7.9 nM.

The compound `Cc1cnc(NCCc2ccccc2)nc1-c1c[nH]c(C(=O)N[C@H](CO)c2ccccc2)c1` [erk000578] had a Ki of 7.1 nM.

`Cc1cnc(N[C@@H](CO)CC(F)(F)F)nc1-c1c[nH]c(C(=O)N[C@H](CO)c2cccc(Cl)c2)c1` [erk000675]: the Ki was 7.9 nM.

In the case of `Cc1cnc(N[C@H]2CCCC[C@H]2O)nc1-c1c[nH]c(C(=O)N[C@H](CO)c2ccccc2)c1` [erk000465], the affinity corresponds to a Ki of 7.1 nM.

`Cc1cccc([C@@H](CO)NC(=O)c2cc(-c3nc(Nc4cccc(F)c4C)ncc3C)c[nH]2)c1` [erk000601] registered a Ki of 7.9 nM.

In the case of `CCOC(=O)N1CCC(Nc2ncc(Cl)c(-c3c[nH]c(C(=O)N[C@H](CO)c4cccc(Cl)c4)c3)n2)CC1` [erk000703], the Ki was 7.1 nM.

`Cc1cnc(NN(C)C)nc1-c1c[nH]c(C(=O)N[C@H](CO)c2ccccc2)c1` [erk000505] returned a Ki of 7.1 nM.

`Cc1cnc(NN2CCCC2)nc1-c1c[nH]c(C(=O)N[C@H](CO)c2cccc(Cl)c2)c1` [erk000624] showed an inhibitory constant (Ki) of 7.1 nM.

Compound `Cc1cnc(Nc2ccc(Cl)cc2Cl)nc1-c1c[nH]c(C(=O)N[C@H](CO)c2ccccc2)c1` [erk000657] came in with a Ki of 7.9 nM.
